The text below walks through data of patent US20170008888A1 (KYORIN PHARMACEUTICAL CO., LTD., priority 2014, published 2017).

Assay [1] concerns the target T1, ERK5 (Homo sapiens, UniProt Q13164).
T1 construct: screened for activity against several kinases in Jurkat cells; endogenous in cells; host or cells: Jurkat cell lysate
In words: Probe-based (AX9989 acyl phosphate ATP probe) kinase profiling in Jurkat lysate: ERK5. The class given is binding. The settings on record: for IC50: calculated from percent inhibition of AX9989 labeling and the screening concentration, Jurkat lysate; for inhibition at 1 µM: screening concentration 1.0 μM. A digest of the protocol: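 ERK5 IC50 values came from percent inhibition at the screening concentration, measured as loss of LC/MS signal of probe-labelled active-site peptides. Compound was added for 15 min at room temperature to Jurkat lysate (5 mg/ml, 20 mM MnCl2) before labelling with AX9989 ATP acyl phosphate probe at 5 μM.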

The subject of assay [2] is AurB or AurC. As to the kind of experiment: Probe-based (AX9989) kinase profiling in Jurkat lysate: AurB or AurC. The class given is binding. The method, boiled down:
(§1)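 Read-out: LC/MS intensity of desthiobiotinylated kinase active-site peptides, percent inhibition normalized to no-compound lysate. Jurkat lysate with 20 mM MnCl2 received compound for 15 min at room temperature, then 5 μM AX9989 probe; duplicates.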

For assay [3], the system named is human PBMCs. In words: Human PBMC TNF-α response to endotoxin (ELISA). It is filed as cell-based. The settings on record: 0.1 μg/ml LPS 16 h, read-out: EC50 for the inhibition of the human PBMC TNF-α response to endotoxin, ave. ± S.D. A digest of the protocol: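 PBMCs at 2e6 cells/ml in RPMI 1640 with 10% charcoal-dextran-treated FBS were pre-treated 1 h at 37 °C with compound (4-point 1:5 dilution from 10 μM). Stimulation with 0.1 μg/ml E. coli 0111:B4 LPS for 16 h; TNF-α measured by ELISA (A450) in 25-fold diluted supernatant.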
For orientation: An ELISA detects its analyte on a solid surface through an enzyme-linked reagent.

Assay [4] has as its system AMPKa1 or AMPKa2. As to the kind of experiment: Probe-based (AX9989) kinase profiling in Jurkat lysate: AMPKa1 or AMPKa2. The class given is binding. The method, boiled down:
as §1

In assay [5] the target is T2, JAK1 (Homo sapiens, UniProt P23458).
T2 construct: screened for activity against several kinases in Jurkat cells; endogenous in cells; host or cells: Jurkat cell lysate
As to the kind of experiment: Probe-based (AX9989) kinase profiling in Jurkat lysate: JAK1. It is filed as binding. The settings on record: read-out: Kinase inhibition % at indicated screening concentration: JAK1; for inhibition at 1 µM: screening concentration 1.0 μM. A digest of the protocol:
as §1

The target of assay [6] is T3, TAO2 (Homo sapiens, UniProt Q9UL54).
T3 construct: screened for activity against several kinases in Jurkat cells; endogenous in cells; host or cells: Jurkat cell lysate
T3 sequence (Q9UL54 1-1235): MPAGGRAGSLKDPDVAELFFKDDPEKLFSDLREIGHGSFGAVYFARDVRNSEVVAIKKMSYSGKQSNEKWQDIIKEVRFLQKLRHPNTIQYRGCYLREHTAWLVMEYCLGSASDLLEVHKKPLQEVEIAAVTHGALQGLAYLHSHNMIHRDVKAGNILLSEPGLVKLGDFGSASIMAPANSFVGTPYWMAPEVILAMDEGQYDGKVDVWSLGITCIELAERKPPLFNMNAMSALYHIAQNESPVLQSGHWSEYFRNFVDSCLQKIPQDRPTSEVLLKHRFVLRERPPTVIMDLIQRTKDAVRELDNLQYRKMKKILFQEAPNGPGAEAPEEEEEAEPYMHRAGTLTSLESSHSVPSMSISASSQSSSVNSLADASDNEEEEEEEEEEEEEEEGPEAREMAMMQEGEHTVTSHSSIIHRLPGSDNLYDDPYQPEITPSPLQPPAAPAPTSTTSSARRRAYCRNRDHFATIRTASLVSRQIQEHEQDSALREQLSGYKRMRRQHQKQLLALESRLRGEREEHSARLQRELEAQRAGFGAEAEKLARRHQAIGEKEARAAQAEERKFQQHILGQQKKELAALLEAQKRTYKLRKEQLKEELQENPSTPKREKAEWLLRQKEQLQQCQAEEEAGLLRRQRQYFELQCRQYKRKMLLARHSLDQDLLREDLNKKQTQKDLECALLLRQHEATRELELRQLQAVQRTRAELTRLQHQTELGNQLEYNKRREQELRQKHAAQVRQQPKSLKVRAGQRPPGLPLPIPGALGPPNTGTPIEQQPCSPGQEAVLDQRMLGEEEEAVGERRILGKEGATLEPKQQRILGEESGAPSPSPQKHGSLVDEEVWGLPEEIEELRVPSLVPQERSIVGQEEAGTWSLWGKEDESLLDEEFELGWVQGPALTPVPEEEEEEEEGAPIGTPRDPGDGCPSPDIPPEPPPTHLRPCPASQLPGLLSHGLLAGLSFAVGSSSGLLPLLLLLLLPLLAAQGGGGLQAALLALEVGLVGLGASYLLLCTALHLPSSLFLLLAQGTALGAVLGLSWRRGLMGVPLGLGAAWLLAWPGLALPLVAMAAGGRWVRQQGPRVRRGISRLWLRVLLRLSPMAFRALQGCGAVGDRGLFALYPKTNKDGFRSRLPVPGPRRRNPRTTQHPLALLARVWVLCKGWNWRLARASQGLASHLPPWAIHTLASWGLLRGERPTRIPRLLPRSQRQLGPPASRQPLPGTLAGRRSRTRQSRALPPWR
As to the kind of experiment: Probe-based (AX9989) kinase profiling in Jurkat lysate: TAO2. The settings on record: read-out: Kinase inhibition % at indicated screening concentration: TAO2; for inhibition at 1 µM: screening concentration 1.0 μM. The class given is binding. A digest of the protocol:
as §1

The mark [7] stands for this setting: read-out: Kinase inhibition % at indicated screening concentration: ERK5.

T2 sequence (P23458 whole entry): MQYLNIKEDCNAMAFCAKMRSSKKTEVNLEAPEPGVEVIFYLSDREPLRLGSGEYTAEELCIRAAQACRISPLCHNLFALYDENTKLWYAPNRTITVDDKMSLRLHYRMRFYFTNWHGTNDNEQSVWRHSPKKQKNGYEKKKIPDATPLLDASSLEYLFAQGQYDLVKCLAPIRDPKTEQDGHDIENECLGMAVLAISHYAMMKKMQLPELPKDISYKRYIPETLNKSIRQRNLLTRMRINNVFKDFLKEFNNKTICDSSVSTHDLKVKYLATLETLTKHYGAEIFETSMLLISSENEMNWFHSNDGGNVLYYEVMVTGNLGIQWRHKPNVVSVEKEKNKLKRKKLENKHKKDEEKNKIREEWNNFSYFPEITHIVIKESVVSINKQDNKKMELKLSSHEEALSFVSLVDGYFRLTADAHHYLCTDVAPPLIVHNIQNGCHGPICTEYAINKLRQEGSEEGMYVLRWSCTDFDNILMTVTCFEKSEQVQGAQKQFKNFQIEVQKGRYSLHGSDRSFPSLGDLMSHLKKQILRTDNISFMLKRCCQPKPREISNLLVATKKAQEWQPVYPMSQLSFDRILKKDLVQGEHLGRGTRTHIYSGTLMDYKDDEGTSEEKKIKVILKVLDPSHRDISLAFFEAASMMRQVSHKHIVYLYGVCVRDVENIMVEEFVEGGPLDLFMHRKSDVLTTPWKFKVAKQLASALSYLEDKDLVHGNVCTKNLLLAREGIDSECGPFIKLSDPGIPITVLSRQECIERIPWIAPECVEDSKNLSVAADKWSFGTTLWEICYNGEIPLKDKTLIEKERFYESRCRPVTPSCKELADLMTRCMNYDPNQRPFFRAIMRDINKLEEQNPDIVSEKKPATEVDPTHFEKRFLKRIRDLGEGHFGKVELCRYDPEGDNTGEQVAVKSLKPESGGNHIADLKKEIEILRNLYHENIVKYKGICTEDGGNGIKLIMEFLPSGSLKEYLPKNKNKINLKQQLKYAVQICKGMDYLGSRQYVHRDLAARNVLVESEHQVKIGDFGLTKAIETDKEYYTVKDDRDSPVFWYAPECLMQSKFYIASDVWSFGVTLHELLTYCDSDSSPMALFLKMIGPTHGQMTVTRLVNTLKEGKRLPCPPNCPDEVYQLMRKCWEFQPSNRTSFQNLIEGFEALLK
T1 sequence (Q13164 whole entry): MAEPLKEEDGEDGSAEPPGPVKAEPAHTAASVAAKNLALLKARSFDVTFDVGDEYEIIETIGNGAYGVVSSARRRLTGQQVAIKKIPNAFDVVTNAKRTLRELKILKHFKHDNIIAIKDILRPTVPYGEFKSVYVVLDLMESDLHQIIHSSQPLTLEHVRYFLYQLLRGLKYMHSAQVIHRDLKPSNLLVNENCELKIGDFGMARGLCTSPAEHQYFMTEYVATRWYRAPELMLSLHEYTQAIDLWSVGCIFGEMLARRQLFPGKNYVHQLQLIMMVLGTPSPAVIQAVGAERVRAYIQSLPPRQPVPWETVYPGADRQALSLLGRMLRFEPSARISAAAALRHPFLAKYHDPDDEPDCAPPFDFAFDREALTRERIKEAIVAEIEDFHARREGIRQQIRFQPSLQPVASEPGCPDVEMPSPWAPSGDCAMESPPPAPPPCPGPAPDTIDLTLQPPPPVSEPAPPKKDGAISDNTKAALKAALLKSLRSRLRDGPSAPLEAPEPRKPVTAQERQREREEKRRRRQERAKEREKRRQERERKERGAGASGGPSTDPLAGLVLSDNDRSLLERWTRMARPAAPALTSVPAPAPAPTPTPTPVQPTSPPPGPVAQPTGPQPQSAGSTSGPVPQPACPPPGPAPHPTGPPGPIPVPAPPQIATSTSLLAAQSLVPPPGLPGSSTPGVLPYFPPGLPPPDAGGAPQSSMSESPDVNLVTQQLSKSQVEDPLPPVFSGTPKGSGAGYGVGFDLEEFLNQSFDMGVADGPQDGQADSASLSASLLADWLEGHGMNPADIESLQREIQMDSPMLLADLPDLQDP

By IC50 is commonly meant the midpoint of a concentration-inhibition curve. By EC50 is commonly meant the midpoint of the concentration-response curve. On to `CCOc1cc(C(=O)N2CCC(NC)C2)ccc1Nc1cc2c(cn1)N(C)C(=O)c1occc1N2C` (stereo not drawn) [Compound 43], for which the IC50 in assay [1] is at most 50 nM. The inhibition at 0.1 µM in assay [1] (screening concentration 0.1 μM, read-out: Kinase inhibition % at indicated screening concentration: ERK5) is over 90%; in assay [5] (screening concentration 0.1 μM) it was at most 35%; in assay [6] (screening concentration 0.1 μM) it was at most 35%. The “Kinase inhibition % at indicated screening concentration: AurB or AurC” value (“Kinase inhibition % … AurB or AurC” for short) in assay [2] (screening concentration 0.1 μM) is listed as “E (E is ≦35%)”. In addition, the EC50 in assay [3] worked out at 1480 nM. Besides, in assay [4] (screening concentration 0.1 μM), the “Kinase inhibition % at indicated screening concentration: AMPKa1 or AMPKa2” value (shortened to “Kinase inhibition % … AMPKa1 or AMPKa2”) is listed as “E (E is ≦35%)”.

For the molecule `CCOc1cc(C(=O)NCCN2CCN(C)CC2)ccc1Nc1cc2c(cn1)N(C)C(=O)c1ccccc1N2C` [Compound 44], in assay [1], the IC50 is 101 to 500 nM. Besides, the inhibition at 1 µM in assay [1] (setting [7]) was 75 to 90%; in assay [5], at most 35%; in assay [6] it was at most 35%. For the same molecule, the “Kinase inhibition % … AurB or AurC” value in assay [2] (screening concentration 1.0 μM) is on record as “E (E is ≦35%)”. Also, the EC50 in assay [3] amounted to 590 nM. Further, the “Kinase inhibition % … AMPKa1 or AMPKa2” value in assay [4] (screening concentration 1.0 μM) is “E (E is ≦35%)”.

With `CN1C(=O)c2ccccc2N(C)c2cc(N[C@H]3CC[C@H](NC4=NCCO4)CC3)ncc21` [Compound 45], the IC50 in assay [1] was 101 to 500 nM. The inhibition at 1 µM is 75 to 90% in assay [1] (setting [7]), at most 35% in assay [5] and at most 35% in assay [6]. Further, the “Kinase inhibition % … AurB or AurC” value in assay [2] (screening concentration 1.0 μM) is “E (E is ≦35%)”. Besides, the EC50 in assay [3] amounted to 1580 nM. Further, the “Kinase inhibition % … AMPKa1 or AMPKa2” value in assay [4] (screening concentration 1.0 μM) is on record as “E (E is ≦35%)”.
